Measured values reported in patent US20130303605A1, “EXTERNAL COMPOSITION FOR SKIN CONTAINING MANASSANTIN B AS ACTIVE INGREDIENT AND THE USE THEREOF FOR SKIN WHITENING” (Amorepacific Corporation, priority 2006, published 2013).

Experiments:
[1] = test system: melan-a cells and SP-1 cells; assay: Inhibition of melanin synthesis in coculture of melanocytes and keratinocytes; assay type: cell-based, mouse
Method: Melanocytes were cultured in the same manner as in the step 1 of Test Example 1. Mouse keratinocytes SP-1 cells were cultured to a confluency of […] in 8% fetal bovine serum-containing s-MEM medium in a 10% CO2 incubator, while the medium was replaced with fresh medium at 3-days intervals.
The melan-a cells and SP-1 cells cultured in the step were separated with 0.25% Trypsin-EDTA and spread together on a 12-well plate at a ratio of 1:10 at cell densities of 1×10^4 cells/well for melan-a and 1×10^5 cells/well for SP-1. Then, the cells were left to stand for 24 hours. The cells were treated with manassantin B at various concentrations, and after 5 days, the cells were collected with 1N NaOH. The collected cells were measured for absorbance at 405 nm and measured for protein concentration using the Lowry method.

[2] = test system: acyl CoA cholesterol acyltransferase; conditions: Korean Patent Application No. 10-2003-0080397; cited from earlier work
[3] = biological target: T1, tyrosinase (Mus musculus, UniProt P11344); assay: Tyrosinase activity inhibition in melanocyte lysate (L-DOPA, absorbance 490 nm); assay type: biochemical; conditions: melan-a cell lysate, 1 hour with various concentrations, absorbance at 490 nm (FIG. 3)
T1 construct: disrupted with 0.1M phosphate buffer (containing 1% triton x-100); endogenous in cells; host or cells: cultured melanocytes (melan-a), cell lysate supernatant
T1 sequence (P11344 19-533): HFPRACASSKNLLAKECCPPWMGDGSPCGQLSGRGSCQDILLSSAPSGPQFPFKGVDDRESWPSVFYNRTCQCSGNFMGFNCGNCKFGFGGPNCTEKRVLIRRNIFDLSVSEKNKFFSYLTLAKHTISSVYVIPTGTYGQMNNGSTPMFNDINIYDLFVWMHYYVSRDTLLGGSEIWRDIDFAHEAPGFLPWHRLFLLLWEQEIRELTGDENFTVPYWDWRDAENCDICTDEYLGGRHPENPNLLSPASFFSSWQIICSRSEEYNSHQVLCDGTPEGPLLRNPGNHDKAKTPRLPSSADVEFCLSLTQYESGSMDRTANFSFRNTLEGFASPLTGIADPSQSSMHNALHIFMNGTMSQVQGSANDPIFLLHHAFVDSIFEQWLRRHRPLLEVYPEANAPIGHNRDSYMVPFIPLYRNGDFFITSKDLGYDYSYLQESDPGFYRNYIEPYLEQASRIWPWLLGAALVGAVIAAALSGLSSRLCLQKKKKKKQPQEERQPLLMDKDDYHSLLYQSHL
Method: Melanocytes were cultured in the same manner as in the step 1 of Test Example 1.
The cells cultured in the step 1 were washed once with cold PBS, and then disrupted with 0.1M phosphate buffer (containing 1% triton x-100). Then, the cells were centrifuged at 1400 rpm for 20 minutes, and the cell supernatant was isolated. 40 μg of the protein thus prepared was mixed with various concentrations of manassantin B and allowed to react for 1 hour. The reaction material was treated with 2 mg/ml of L-DOPA solution and left to stand 37° C.

[4] = test system: melanophilin and myosin 5a; assay: Inhibition of binding between melanophilin and myosin 5a (plate binding, chemiluminescence); conditions: his-GFP-mlphCT on nickel-coated plate, Flag-MyosinVa GT, chemiluminescence (FIG. 2)
Excerpt: Proteins required in the test were produced in large amounts using a suitable system (E. coli) or baculovirus. Herein, the designed proteins essentially included domains known to be required for protein interaction and contained GST, His tag or flag tag such that the produced proteins could be easily purified and isolated. Each of a histidine tagged-GFP-melanophilin recombinant protein and a Flag-MyosinVa recombinant protein, which were to be used as bait proteins, were expressed in a baculovirus system, cells containing the proteins were disrupted, and then extracts were prepared. Flag-MyosinVa GT was prepared into an extract with PBS TG buffer solution, and then purified by flag-affinity chromatography.
The his-GFP-mlphCT protein prepared in the step 1 was bound to a nickel-coated plate through reaction. To the plate, binding partner Flag-MyosinVa GT was bound, and then an M2 antibody recognizing the flag was bound. The plate was subjected to color development reaction by chemiluminescence to measure the degree of binding between the proteins.

[5] = test system: melan-a cells; assay: Inhibition of melanosome transfer at cell level (optical microscope observation); assay type: cell-based, mouse; conditions: various concentrations, after 4 days, optical microscope (FIG. 1)
Method: Melan-a Cells, Immortalized Mouse Melanocytes, Were cultured to a confluency of 90% in 10% fetal bovine serum-containing RPMI 1640 medium in a 10% CO2 incubator, while the medium was replaced with fresh medium at 3-day intervals.
The melan-a cells cultured in the step 1 were separated using 0.25% trypsin-EDTA and spread on a 6-well plate at a density of 3×10^5 cells/well. Then, the cells were left to stand for 24 hours.

inhibition of tyrosinase activity [3]: did not directly inhibit | degree of binding between melanophilin and myosin 5a [4]: inhibited the binding
SMILES: COc1ccc([C@@H](O)[C@@H](C)Oc2ccc([C@H]3O[C@H](c4ccc(O[C@H](C)[C@H](O)c5ccc6c(c5)OCO6)c(OC)c4)[C@H](C)[C@H]3C)cc2OC)cc1OC [manassantin B]
inhibition at 0.02 ppm ([1]; Mus musculus, 120 h, coculture melan-a:SP-1 1:10, 5 days, manassantin B concentration of 0.02 ppm): ~50% | inhibition of melanin synthesis ([1]; coculture melan-a:SP-1 1:10, various concentrations, 5 days (FIG. 4)): inhibited melanin synthesis in a concentration-dependent manner | inhibition of activity of acyl CoA cholesterol acyltransferase [2]: inhibit the activity of acyl CoA cholesterol acyltransferase | configuration of the cells / distribution (transfer) of melanosomes [5]: melanosomes were gathered together around the nuclei
